Results from US8198273B2, “Compounds and methods for kinase modulation, and indications therefor” (Plexxikon Inc., priority 2009, dated 2012).

How the values were obtained:
[1] = target: B-Raf V600E (Homo sapiens, UniProt P15056, V600E); test: B-Raf V600E biochemical kinase inhibition (AlphaScreen, biotin-MEK1 substrate); conditions: 100 μM ATP
Procedure: (§1) Compounds to be tested are diluted in dimethyl sulfoxide to a concentration of 0.1 mM. These are serially diluted 15 μL into 30 μL of dimethyl sulfoxide seven times in 96 well plates for a total of 8 dilution points, and for each dilution point 1 μL is added to a well of an assay plate. […] The reaction is started with addition of 10 μL of 200 μM ATP (i.e. final 100 μM ATP). […] The plates are incubated for 3 hours at room temperature and read on Envision reader (Perkin Elmer). […] The signal vs. compound concentration is used to determine the IC50.

[2] = target: CYP2D6 (Homo sapiens, UniProt P10635); test: CYP2D6 inhibition (fluorescent substrate); type: in vitro ADME; conditions: CYP2D6, AMMC substrate; read-out: Cyp IC50 2D6
Sequence of CYP2D6 (P10635 whole entry): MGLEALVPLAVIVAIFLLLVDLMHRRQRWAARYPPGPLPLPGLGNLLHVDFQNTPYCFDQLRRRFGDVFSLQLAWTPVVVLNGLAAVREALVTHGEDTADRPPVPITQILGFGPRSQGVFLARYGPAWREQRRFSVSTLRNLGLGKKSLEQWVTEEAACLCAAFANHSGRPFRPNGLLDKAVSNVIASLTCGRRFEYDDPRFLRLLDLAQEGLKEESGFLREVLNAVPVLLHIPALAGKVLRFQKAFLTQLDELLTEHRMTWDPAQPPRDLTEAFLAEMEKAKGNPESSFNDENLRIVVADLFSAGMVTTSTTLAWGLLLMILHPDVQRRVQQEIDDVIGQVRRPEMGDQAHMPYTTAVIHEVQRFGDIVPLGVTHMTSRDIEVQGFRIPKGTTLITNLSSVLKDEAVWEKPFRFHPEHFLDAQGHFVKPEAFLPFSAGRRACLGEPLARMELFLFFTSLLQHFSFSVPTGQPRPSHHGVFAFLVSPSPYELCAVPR
Procedure: (§2) CYP (Cytochrome P450) enzymes are the major drug metabolizing enzymes present in the liver. The inhibition of CYP enzyme activity (IC50) for each of CYP1A2, CYP2C19, CYP2C9, CYP2D6, CYP3A4(BFC) and CYP3A4(BQ) is determined for compounds, where inhibition of metabolism of a known substrate leads to a decrease in the fluorescence of the metabolized product. The fluorescence of the product is monitored as a function of compound concentration.
(§3) Compounds are dissolved in dimethyl sulfoxide to a concentration of 100 mM. These are diluted 1 μL into 82 μL of acetonitrile. […] These are then serially diluted 1:1 (160 μL to 160 μL co-factor mix) for a total of 10 points. A 10 μL aliquot of this final mixture is dispensed into 384 well assay plates and incubated for 10 minutes at 37° C. […] Assay plates are incubated at 37° C. […] The signal versus compound concentration is used to determine the IC50. The enzymes and substrates for this assay are obtained from BD Biosciences.

[3] = target: c-Raf-1 (Homo sapiens, UniProt P04049); test: c-Raf-1 biochemical kinase inhibition (AlphaScreen, biotin-MEK1 substrate); conditions: 100 μM ATP
Sequence of c-Raf-1 (P04049 whole entry): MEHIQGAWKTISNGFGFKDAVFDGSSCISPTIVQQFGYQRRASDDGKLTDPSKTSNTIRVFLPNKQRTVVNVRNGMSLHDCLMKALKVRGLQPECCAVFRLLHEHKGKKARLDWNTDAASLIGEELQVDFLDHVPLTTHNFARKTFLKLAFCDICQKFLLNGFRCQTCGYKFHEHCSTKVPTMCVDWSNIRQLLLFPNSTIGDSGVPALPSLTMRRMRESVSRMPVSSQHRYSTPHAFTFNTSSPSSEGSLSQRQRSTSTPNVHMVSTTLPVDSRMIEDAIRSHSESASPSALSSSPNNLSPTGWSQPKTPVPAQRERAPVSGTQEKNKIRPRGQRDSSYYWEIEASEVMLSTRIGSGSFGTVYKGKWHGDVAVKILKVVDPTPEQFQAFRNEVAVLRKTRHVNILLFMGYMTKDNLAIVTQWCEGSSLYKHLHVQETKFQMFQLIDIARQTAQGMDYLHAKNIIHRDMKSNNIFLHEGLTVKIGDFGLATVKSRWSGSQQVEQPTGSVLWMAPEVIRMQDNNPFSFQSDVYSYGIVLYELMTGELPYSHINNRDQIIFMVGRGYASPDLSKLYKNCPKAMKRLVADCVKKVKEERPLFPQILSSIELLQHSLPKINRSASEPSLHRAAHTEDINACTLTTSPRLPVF
Procedure: as §1

[4] = target: T1, CYP1A2 (Homo sapiens, UniProt P05177); test: CYP1A2 inhibition (fluorescent substrate); type: in vitro ADME; conditions: CYP1A2, CEC substrate; read-out: Cyp IC50 1A2
T1 sequence (P05177 1-516): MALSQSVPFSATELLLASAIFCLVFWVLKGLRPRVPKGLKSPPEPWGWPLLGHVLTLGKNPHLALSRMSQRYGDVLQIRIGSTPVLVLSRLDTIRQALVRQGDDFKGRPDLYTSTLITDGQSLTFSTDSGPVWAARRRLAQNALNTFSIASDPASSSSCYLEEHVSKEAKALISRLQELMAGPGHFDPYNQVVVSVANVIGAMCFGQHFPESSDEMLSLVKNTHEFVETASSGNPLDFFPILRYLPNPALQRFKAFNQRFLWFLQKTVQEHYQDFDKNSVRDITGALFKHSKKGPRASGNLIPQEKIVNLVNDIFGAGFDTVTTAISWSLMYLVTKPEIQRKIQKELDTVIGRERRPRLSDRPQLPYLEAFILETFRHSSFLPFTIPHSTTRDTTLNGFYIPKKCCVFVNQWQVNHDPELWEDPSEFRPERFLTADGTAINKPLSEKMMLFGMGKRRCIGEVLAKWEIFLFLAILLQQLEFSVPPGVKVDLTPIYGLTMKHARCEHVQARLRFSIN
Procedure: as §2, §3

Sequence of B-Raf V600E (P15056 whole entry V600E): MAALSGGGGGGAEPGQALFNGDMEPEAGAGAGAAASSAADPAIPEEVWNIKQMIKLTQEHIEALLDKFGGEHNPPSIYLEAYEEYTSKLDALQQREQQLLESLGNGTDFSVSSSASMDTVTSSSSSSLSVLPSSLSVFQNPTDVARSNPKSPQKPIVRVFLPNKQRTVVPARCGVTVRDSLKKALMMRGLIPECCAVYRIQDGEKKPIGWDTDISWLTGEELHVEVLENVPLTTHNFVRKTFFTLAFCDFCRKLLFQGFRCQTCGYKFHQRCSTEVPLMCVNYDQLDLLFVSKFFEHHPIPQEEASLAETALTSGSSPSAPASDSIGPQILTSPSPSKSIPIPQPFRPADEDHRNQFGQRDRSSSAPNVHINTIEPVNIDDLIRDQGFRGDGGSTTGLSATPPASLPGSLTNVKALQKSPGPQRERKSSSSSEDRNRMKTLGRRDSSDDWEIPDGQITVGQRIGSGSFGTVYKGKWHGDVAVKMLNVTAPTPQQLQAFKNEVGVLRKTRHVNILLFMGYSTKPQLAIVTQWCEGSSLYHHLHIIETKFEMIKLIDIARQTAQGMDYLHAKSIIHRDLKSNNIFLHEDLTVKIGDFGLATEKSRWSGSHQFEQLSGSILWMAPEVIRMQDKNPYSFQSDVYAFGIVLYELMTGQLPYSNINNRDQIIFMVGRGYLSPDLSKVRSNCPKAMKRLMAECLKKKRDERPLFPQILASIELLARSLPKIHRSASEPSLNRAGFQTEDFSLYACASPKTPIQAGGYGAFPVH

Row | SMILES | IC50 [1] | IC50 [2] | IC50 [3] | IC50 [4]
1 | CCCS(=O)(=O)Nc1ccc(F)c(C(=O)c2c[nH]c3ncc(-c4ccc(NC(C)=O)nc4)cc23)c1F [P-2193, N-(5-{3-[2,6-Difluoro-3-(propane-1-sulfonylamino)-benzoyl]-1H-pyrrolo[2,3-b]pyridin-5-yl}-pyridin-2-yl)-acetamide] | < 0.01 µM | > 10 µM | < 0.01 µM | > 10 µM
2 | COc1ncc(-c2cnc3[nH]cc(C(=O)c4c(F)ccc(NS(=O)(=O)c5c(F)cccc5F)c4F)c3c2)cn1 [P-2043, N-{2,4-Difluoro-3-[5-(2-methoxy-pyrimidin-5-yl)-1H-pyrrolo[2,3-b]pyridine-3-carbonyl]-phenyl}-2,6-difluoro-benzenesulfonamide] | < 0.01 µM | 5 to 10 µM | < 0.01 µM | > 10 µM
3 | CCCS(=O)(=O)Nc1ccc(F)c(C(=O)c2c[nH]c3ncc(-c4cn[nH]c4)cc23)c1F [P-2174, Propane-1-sulfonic acid {2,4-difluoro-3-[5-(1H-pyrazol-4-yl)-1H-pyrrolo[2,3-b]pyridine-3-carbonyl]-phenyl}-amide] | < 0.01 µM | 5 to 10 µM | < 0.01 µM | > 10 µM
4 | CCCS(=O)(=O)Nc1ccc(F)c(C(=O)c2c[nH]c3ncc(-c4cnc(OC)nc4OC)cc23)c1F [P-2199, Propane-1-sulfonic acid {3-[5-(2,4-dimethoxy-pyrimidin-5-yl)-1H-pyrrolo[2,3-b]pyridine-3-carbonyl]-2,4-difluoro-phenyl}-amide] | < 0.01 µM | > 10 µM | < 0.01 µM | > 10 µM
5 | O=C(c1c(F)ccc(NS(=O)(=O)c2ccccc2F)c1F)c1c[nH]c2nccc(Cl)c12 [P-2017, N-[3-(4-Chloro-1H-pyrrolo[2,3-b]pyridine-3-carbonyl)-2,4-difluoro-phenyl]-2-fluoro-benzenesulfonamide] | < 0.01 µM | > 10 µM | – | > 10 µM
6 | COc1cnc2[nH]cc(C(=O)c3c(F)ccc(NS(=O)(=O)c4ccccc4F)c3F)c2c1 [P-2009, N-[2,4-Difluoro-3-(5-methoxy-1H-pyrrolo[2,3-b]pyridine-3-carbonyl)-phenyl]-2-fluoro-benzenesulfonamide] | < 0.01 µM | > 10 µM | – | > 10 µM
7 | CCCS(=O)(=O)Nc1ccc(F)c(C(=O)c2c[nH]c3ncc(-c4cnc(N5CCOCC5)nc4)cc23)c1F [P-2197, Propane-1-sulfonic acid {2,4-difluoro-3-[5-(2-morpholin-4-yl-pyrimidin-5-yl)-1H-pyrrolo[2,3-b]pyridine-3-carbonyl]-phenyl}-amide] | < 0.01 µM | > 10 µM | – | > 10 µM
8 | Cc1cnc2[nH]cc(C(=O)c3c(F)ccc(NS(=O)(=O)c4cccc(F)c4)c3F)c2c1 [P-2016, N-[2,4-Difluoro-3-(5-methyl-1H-pyrrolo[2,3-b]pyridine-3-carbonyl)-phenyl]-3-fluoro-benzenesulfonamide] | < 0.01 µM | > 10 µM | – | > 10 µM
9 | O=C(c1c(F)ccc(NS(=O)(=O)c2cc(F)ccc2F)c1F)c1c[nH]c2nccc(Cl)c12 [P-2018, N-[3-(4-Chloro-1H-pyrrolo[2,3-b]pyridine-3-carbonyl)-2,4-difluoro-phenyl]-2,5-difluoro-benzenesulfonamide] | < 0.01 µM | > 10 µM | – | > 10 µM
10 | CCCS(=O)(=O)Nc1ccc(F)c(C(=O)c2c[nH]c3ncc(-c4ccc(C(=O)NC)nc4)cc23)c1F [P-2180, 5-{3-[2,6-Difluoro-3-(propane-1-sulfonylamino)-benzoyl]-1H-pyrrolo[2,3-b]pyridin-5-yl}-pyridine-2-carboxylic acid methylamide] | < 0.01 µM | > 10 µM | – | > 10 µM
11 | CCCS(=O)(=O)Nc1ccc(F)c(C(=O)c2c[nH]c3ncc(-c4ccc(S(C)(=O)=O)cc4)cc23)c1F [P-2183, Propane-1-sulfonic acid {2,4-difluoro-3-[5-(4-methanesulfonyl-phenyl)-1H-pyrrolo[2,3-b]pyridine-3-carbonyl]-phenyl}-amide] | < 0.01 µM | > 10 µM | – | > 10 µM
12 | CCCS(=O)(=O)Nc1ccc(F)c(C(=O)c2c[nH]c3ncc(-c4ccc(OC)nc4OC)cc23)c1F [P-2184, Propane-1-sulfonic acid {3-[5-(2,6-dimethoxy-pyridin-3-yl)-1H-pyrrolo[2,3-b]pyridine-3-carbonyl]-2,4-difluoro-phenyl}-amide] | < 0.1 µM | > 10 µM | – | > 10 µM
13 | CCCS(=O)(=O)Nc1ccc(F)c(C(=O)c2c[nH]c3ncc(-c4cncc(S(C)(=O)=O)c4)cc23)c1F [P-2188, Propane-1-sulfonic acid {2,4-difluoro-3-[5-(5-methanesulfonyl-pyridin-3-yl)-1H-pyrrolo[2,3-b]pyridine-3-carbonyl]-phenyl}-amide] | < 0.01 µM | > 10 µM | – | > 10 µM
14 | CCCS(=O)(=O)Nc1ccc(F)c(C(=O)c2c[nH]c3ncc(-c4cnn(CCN5CCOCC5)c4)cc23)c1F [P-2177, Propane-1-sulfonic acid (2,4-difluoro-3-{5-[1-(2-morpholin-4-yl-ethyl)-1H-pyrazol-4-yl]-1H-pyrrolo[2,3-b]pyridine-3-carbonyl}-phenyl)-amide] | < 0.01 µM | > 10 µM | – | > 10 µM
15 | N#Cc1cnc2[nH]cc(C(=O)c3c(F)ccc(NS(=O)(=O)c4ccccc4F)c3F)c2c1 [P-2011, N-[3-(5-Cyano-1H-pyrrolo[2,3-b]pyridine-3-carbonyl)-2,4-difluoro-phenyl]-2-fluoro-benzenesulfonamide] | < 0.01 µM | > 10 µM | – | > 10 µM
16 | O=C(c1c(F)ccc(NS(=O)(=O)c2cccc(F)c2)c1F)c1c[nH]c2nccc(Cl)c12 [P-2019, N-[3-(4-Chloro-1H-pyrrolo[2,3-b]pyridine-3-carbonyl)-2,4-difluoro-phenyl]-3-fluoro-benzenesulfonamide] | < 0.01 µM | > 10 µM | – | > 10 µM
17 | CCCS(=O)(=O)Nc1ccc(F)c(C(=O)c2c[nH]c3ncc(-c4ccc(C(=O)NC5CC5)nc4)cc23)c1F [P-2181, 5-{3-[2,6-Difluoro-3-(propane-1-sulfonylamino)-benzoyl]-1H-pyrrolo[2,3-b]pyridin-5-yl}-pyridine-2-carboxylic acid cyclopropylamide] | < 0.01 µM | > 10 µM | – | > 10 µM
18 | CCCS(=O)(=O)Nc1ccc(F)c(C(=O)c2c[nH]c3ncc(-c4ccc(SC)nc4)cc23)c1F [P-2187, Propane-1-sulfonic acid {2,4-difluoro-3-[5-(6-methylsulfanyl-pyridin-3-yl)-1H-pyrrolo[2,3-b]pyridine-3-carbonyl]-phenyl}-amide] | < 0.01 µM | > 10 µM | – | > 10 µM
19 | Cc1cnc2[nH]cc(C(=O)c3c(F)ccc(NS(=O)(=O)c4ccccc4F)c3F)c2c1 [P-2014, N-[2,4-Difluoro-3-(5-methyl-1H-pyrrolo[2,3-b]pyridine-3-carbonyl)-phenyl]-2-fluoro-benzenesulfonamide] | < 0.01 µM | > 10 µM | – | > 10 µM
20 | CCCS(=O)(=O)Nc1ccc(F)c(C(=O)c2c[nH]c3ncc(-c4cnn(Cc5ccccc5)c4)cc23)c1F [P-2190, Propane-1-sulfonic acid {3-[5-(1-benzyl-1H-pyrazol-4-yl)-1H-pyrrolo[2,3-b]pyridine-3-carbonyl]-2,4-difluoro-phenyl}-amide] | < 0.01 µM | > 10 µM | – | > 10 µM
21 | CCCS(=O)(=O)Nc1ccc(F)c(C(=O)c2c[nH]c3ncc(-c4ccnc(F)c4)cc23)c1F [P-2192, Propane-1-sulfonic acid {2,4-difluoro-3-[5-(2-fluoro-pyridin-4-yl)-1H-pyrrolo[2,3-b]pyridine-3-carbonyl]-phenyl}-amide] | < 0.01 µM | > 10 µM | – | > 10 µM
